{"source": "patent US12133530B2", "about": "“Herbicidal mixtures comprising L-glufosinate or its salt and at least one VLCFA inhibitor” (BASF SE, priority 2017, dated 2024)", "key": {"[1]": {"tested_on": "ABUTH (Abutilon theophrasti)", "test": "Post-emergence greenhouse pot test, herbicidal activity (scale 0 to 100)", "assay_type": "in vivo", "method": "(§1) However, the weed control afforded by the compounds, mixtures or compositions is not limited to these species. The analysis of synergism or antagonism between the mixtures or compositions was determined using Colby's equation.\n(§2) The culture containers used were plastic flowerpots containing loamy sand with approximately 3.0% of humus as the substrate. The seeds of the test plants were sown separately for each species and/or resistant biotype. For the pre-emergence treatment, the active ingredients, which had been suspended or emulsified in water, were applied directly after sowing by means of finely distributing nozzles. The containers were irrigated gently to promote germination and growth and subsequently covered with transparent plastic hoods until the plants had rooted. This cover caused uniform germination of the test plants, unless this had been impaired by the active ingredients. For the post-emergence treatment, the test plants were first grown to a height of 3 to 15 cm, depending on the plant habit, and only then treated with the active ingredients which had been suspended or emulsified in water. For this purpose, the test plants were either sown directly and grown in the same containers, or they were first grown separately as seedlings and transplanted into the test containers a few days prior to treatment. Depending on the species, the plants were kept at 10-25° C. or 20-35° C., respectively. The test period extended to 20 days after treatment. During this time, the plants were tended, and their response to the individual treatments was evaluated. The evaluation was carried out by using a scale from 0 to 100. 100 means no emergence of the plants or complete destruction of at least the above-ground parts, and 0 means no damage, or normal course of growth. Data shown are the mean of two replications."}, "AVEFA (Avena fatua)": {"tested_on": "AVEFA (Avena fatua)", "test": "Post-emergence greenhouse pot test, herbicidal activity (scale 0 to 100)", "assay_type": "in vivo", "details": "scale 0-100", "method": "as §1, §2"}}, "data": [{"smiles": "Cn1nc(C(F)(F)F)c(CS(=O)(=O)C2=NOC(C)(C)C2)c1OC(F)F", "note": "[Pyroxasulfone, pyroxasulfone]", "values": [{"measurement": "Herbicidal activity against ABUTH, Found", "setting": "[1]; Pyroxasulfone 25 g ai/ha alone, scale 0-100", "result": 40}, {"measurement": "Herbicidal activity against ABUTH, Found", "setting": "[1]; Pyroxasulfone 50 g ai/ha alone, scale 0-100", "result": 70}]}, {"smiles": "CCOCCN(C(=O)CCl)C(=C(C)C)c1ccccc1", "note": "[Pethoxamid, pethoxamid]", "values": [{"measurement": "Herbicidal activity against ABUTH, Found", "setting": "[1]; Pethoxamid 50 g ai/ha alone, scale 0-100", "result": 0}, {"measurement": "Herbicidal activity against ABUTH, Found", "setting": "[1]; Pethoxamid 100 g ai/ha alone, scale 0-100", "result": 0}, {"measurement": "Herbicidal activity against AVEFA, Found", "setting": "AVEFA (Avena fatua); Pethoxamid 50 g ai/ha alone", "result": 0}, {"measurement": "Herbicidal activity against AVEFA, Found", "setting": "AVEFA (Avena fatua); Pethoxamid 100 g ai/ha alone", "result": 0}]}, {"smiles": "CP(=O)(O)CC[C@H](N)C(=O)O", "note": "[L-Glufosinate, (2S)-2-amino-4-[hydroxy(methyl)phosphinoyl]butyric acid]", "values": [{"measurement": "Herbicidal activity against ABUTH, Found", "setting": "[1]; L-Glufosinate 75 g ai/ha alone, scale 0-100", "result": 0}, {"measurement": "Herbicidal activity against ABUTH, Found", "setting": "[1]; L-Glufosinate 150 g ai/ha alone, scale 0-100", "result": 55}, {"measurement": "Herbicidal activity against ABUTH, Found", "setting": "[1]; L-Glufosinate 200 g ai/ha alone, scale 0-100, mean of two replications", "result": 65}, {"measurement": "Herbicidal activity against AVEFA, Found", "setting": "AVEFA (Avena fatua); L-Glufosinate 75 g ai/ha alone", "result": 0}, {"measurement": "Herbicidal activity against AVEFA, Found", "setting": "AVEFA (Avena fatua); L-Glufosinate 150 g ai/ha alone", "result": 0}]}]}
